Experimental data: patent US20230220443A1, “CHARACTERIZATION OF S-ADENOSYL-L-METHIONINE-CONSUMING ENZYMES WITH 1-STEP EZ-MTASE: A UNIVERSAL COUPLED-ASSAY” (ALBERT EINSTEIN COLLEGE OF MEDICINE, priority 2017, published 2023)

Experiments:
[1] = biological target: T1, GsSDMT (Galdieria sulphuraria, UniProt M2XPA0); experiment: 1-Step EZ-MTase UV-based coupled assay, GsSDMT kinetics; format: biochemical; settings: for Km / kcat: pH=7.80, co-substrate saturating
T1 sequence (M2XPA0 2-297): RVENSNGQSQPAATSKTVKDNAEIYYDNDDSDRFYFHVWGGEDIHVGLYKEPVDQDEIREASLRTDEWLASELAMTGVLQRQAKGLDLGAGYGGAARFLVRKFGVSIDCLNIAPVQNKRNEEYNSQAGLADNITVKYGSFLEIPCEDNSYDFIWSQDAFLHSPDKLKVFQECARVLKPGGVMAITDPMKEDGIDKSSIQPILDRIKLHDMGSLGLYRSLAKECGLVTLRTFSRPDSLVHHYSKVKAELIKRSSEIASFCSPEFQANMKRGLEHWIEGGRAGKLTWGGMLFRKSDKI
Experimental: Kinetic behavior for sarcosine against GsSDMT (SAM sat.)—Experiments were conducted following matching CePRMT5 protocol above. Briefly, the 100-μL mixtures from a same row contained 100 mM phosphate buffer pH=7.80, 1 mM βME, 5% glycerol, 100 μM MgCl2, 4 μM coupling deaminase TM0936, 976 nM GsSDMT and various sarcosine concentrations (0.5-12.5 mM; in the first well, sarcosine was omitted to account for background signal—natural decomposition of SAM). Reactions started upon addition of SAM (750 μM saturating final concentration), 60-μL volumes were transferred onto UV plate and absorbance was recorded. Initial rates were first corrected for background signal, and then plotted against sarcosine concentrations. Fit to the Michaelis-Menten equation provided corresponding kinetic parameters.
Kinetic behavior for SAM against GsSDMT (sarcosine sat.)—Experiments were conducted following matching CePRMT5 protocol above. Briefly, the measurements consisted of two experimental subsets: MTase reactions (both SAM and sarcosine added) and MTase blanks (SAM was added without sarcosine to account for natural SAM decomposition). The 100-μL reaction mixtures from a same row contained 100 mM phosphate buffer pH=7.80, 1 mM βME, 5% glycerol, 100 μM MgCl2, 4 μM coupling deaminase TM0936, 195 nM GsSDMT and various SAM concentrations (49.9-750.2 μM). Reactions started upon addition of either sarcosine (10 mM saturating final concentration; MTase reactions) or water (MTase blanks), 60-μL volumes were transferred onto UV plate and absorbance was recorded at 263 nm. Initial rates were first corrected for background signal, and then plotted against SAM concentrations. Fit to the Michaelis-Menten equation provided corresponding kinetic parameters.
(§1) Kinetic behavior for 8-aza-SAM against MTases (acceptor sat.)—Briefly, kinetic parameters were determined at 20° C. in a UV-Star 96-well flat bottom plate (Greiner Bio-One, #655801) by continuous monitoring of absorbance at 282 nm using a SpectraMax M5 instrument (Molecular Devices). As for SAM experiments, the measurements consisted of two experimental subsets: MTase reactions (both 8-aza-SAM and acceptor added) and MTase blanks (8-aza-SAM was added without acceptor to account for natural 8-aza-SAM decomposition). The 250-μL (60-μL) reaction mixtures from a same row contained 50 mM phosphate buffer pH=7.60 (7.80), 1 mM βME, 10% glycerol (5% glycerol, 100 μM MgCl2), 4 μM coupling deaminase TM0936, either 1.5 μM CePRMT5 or 402 nM TbPRMT7 (or 610 nM GsSDMT) and various 8-aza-SAM concentrations. […] Initial rates were first corrected for background signal, then plotted against 8-aza-SAM concentrations and fitted to the Michaelis-Menten equation to yield corresponding kinetic parameters.

[2] = biological target: T2, TbPRMT7 (Trypanosoma brucei brucei, UniProt Q582G4); experiment: 1-Step EZ-MTase UV-based coupled assay, TbPRMT7 kinetics (incl. ionic strength); format: biochemical; settings: for Km / kcat: pH=7.60, 25 mM phosphate, co-substrate saturating
T2 construct: made in house
Experimental: Briefly, the 250-μL reaction mixtures from a same row contained 25 mM phosphate buffer pH=7.60, 1 mM βME, 10% glycerol, 4 μM coupling deaminase TM0936, 1.0 μM TbPRMT7 and various peptide concentrations (16.6-243.3 μM; in the first well, peptide acceptor was omitted to account for background signal—natural decomposition of SAM). Reactions started upon addition of SAM (25.8 μM saturating final concentration) and absorbance was recorded. […] Fit to the Michaelis-Menten model (Eq. 5) provided corresponding kinetic parameters:
Briefly, the measurements consisted of two experimental subsets: MTase reactions (both SAM and peptide added) and MTase blanks (SAM was added without peptide to account for natural SAM decomposition). The 250-μL reaction mixtures from a same row contained 25 mM phosphate buffer pH=7.60, 1 mM βME, 10% glycerol, 4 μM coupling deaminase TM0936, 402 nM TbPRMT7 and various SAM concentrations (1.53-20.0 μM). […] Initial rates were first corrected for background signal, then plotted against SAM concentrations and fitted to the Morrison kinetic model to yield corresponding kinetic parameters.
as §1, with “parameters. The kinetic data from CePRMT5 were fit to the following Eq. 6 to reflect substrate inhibition observed at higher 8-aza-SAM concentration:” for “parameters.”
Experiments were conducted following TbPRMT7 protocol above. Briefly, the 250-μL reaction mixtures from a same row contained either 25, 50, 75 or 100 mM phosphate buffer pH=7.60, 1 mM βME, 10% glycerol, 4 μM coupling deaminase TM0936, 1.0 μM TbPRMT7 and various peptide concentrations (16.6-243.3 μM; in the first well, peptide acceptor was omitted to account for background signal—natural decomposition of SAM). Reactions started upon addition of SAM (25.8 μM saturating final concentration) and absorbance was recorded. […] The four fits to the Michaelis-Menten equation (kcat fixed at 29 h^−1) provided corresponding Km values and established impact of ionic strength onto this kinetic parameter.

T2 sequence (Q582G4 whole entry): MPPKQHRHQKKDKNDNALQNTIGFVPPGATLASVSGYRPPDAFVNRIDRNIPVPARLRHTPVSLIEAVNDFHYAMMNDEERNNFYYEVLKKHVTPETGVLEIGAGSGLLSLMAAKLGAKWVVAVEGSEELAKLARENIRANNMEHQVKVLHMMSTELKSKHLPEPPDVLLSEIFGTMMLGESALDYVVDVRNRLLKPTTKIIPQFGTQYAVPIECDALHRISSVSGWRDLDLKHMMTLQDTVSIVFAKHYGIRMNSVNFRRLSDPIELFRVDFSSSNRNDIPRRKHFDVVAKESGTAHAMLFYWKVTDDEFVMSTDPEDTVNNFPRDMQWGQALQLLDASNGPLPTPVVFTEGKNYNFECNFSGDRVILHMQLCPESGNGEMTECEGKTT

Structure (SMILES)	substrate inhibition (inhibitory behavior of the analog) [1]	Km [1]	kcat [1]	substrate inhibition (inhibitory behavior of the analog) [2]	Km [2]	kcat [2]
C[S+](CC[C@H](N)C(=O)O)C[C@H]1O[C@@H](n2nnc3c(N)ncnc32)[C@H](O)[C@@H]1O (stereo partly drawn) [8-aza-SAM, S-8-aza-adenosyl-L-methionine]	not observed	443 ± 33 µM	1.35 ± 0.05 s⁻¹	not observed	15.3 ± 0.7 µM	0.00639 ± 0.00011 s⁻¹
C[S+](CC[C@H](N)C(=O)O)C[C@H]1O[C@@H](n2cnc3c(N)ncnc32)[C@H](O)[C@@H]1O (stereo partly drawn) [SAM, S-adenosyl-L-methionine]	–	95 ± 18 µM	0.7 ± 0.033 s⁻¹	–	1.1 ± 0.2 µM	0.00619 ± 0.00017 s⁻¹
